Data: US12692302B2, “Uses of IL-13 antagonists for treating atopic dermatitis” (Genentech, Inc., priority 2016, dated 2026)

Tested on: patients with persistent moderate to severe atopic dermatitis inadequately controlled by TCS
Assay: Clinical Study I (phase II, lebrikizumab + TCS vs placebo + TCS): efficacy outcomes
Format: in vivo, human
Conditions: for Mean % Change in % BSA Affected / Mean % Change in EASI / Mean % Change in Pruritus VAS / Mean % Change in SCORAD / Mean % Change in Sleep VAS / Mean Absolute Change in IGA: screening to baseline (2-week TCS run-in, before study drug)
Protocol: Clinical Study I was a phase II, randomized, double-blind, placebo-controlled study to evaluate the safety and efficacy of lebrikizumab in patients (age 18-75) with persistent moderate to severe atopic dermatitis that is inadequately controlled by topical corticosteroids (TCS). In this Study, lebrikizumab was tested in combination with TCS.
The inclusion criteria included the following: age 18 to 75 years; AD diagnosed by the Hanifin/Rajka criteria and that had been present for at least 1 year at screening; moderate to severe AD as graded by the Rajka/Langeland criteria at screening; history of inadequate response to a 1 month (within the 3 months prior to the screening visit) treatment regimen of at least daily TCS and regular emollient for treatment of AD; EASI score 14 at screening and end of the run-in period (Visit 3), IGA score 3 (5-point scale) at screening and end of the run-in period (Visit 3); AD involvement of 10% body surface area (BSA) at screening; and Pruritus VAS score (measured as part of the SCORAD) of 3 at screening.
Run-in Period. Following the screening visit, eligible patients entered a 2-week run-in period (Days −14 to −1) during which a protocol-specified topical therapy regimen was initiated. On the first day of the run-in period (Day −14) patients received TCS for use throughout the run-in period. Patients were required to apply the following topical therapy regimen daily: emollient to all xerotic skin surfaces, at least once daily; TCS cream consisting of medium potency TCS (triamcinolone acetonide 0.1%), two times per day, only to all active skin lesions.
Treatment Period. […] The plan was to randomize approximately 200 patients (1:1:1:1) to one of the following four treatment groups (see FIG. 1): (1) Group 1: lebrikizumab 250 mg administered subcutaneously (SC) single dose (Day 1) followed by 2 placebo doses (at Week 4 and at Week 8) for a total of 3 doses+TCS cream; (2) Group 2: lebrikizumab 125 mg SC single dose (Day 1) followed by 2 placebo doses (Week 4 and Week 8) for a total of 3 doses+TCS cream; (3) Group 3: lebrikizumab 125 mg SC every 4 weeks (Q4W) for a total of 3 doses+TCS cream; and (4) Group 4: placebo SC Q4W for a total of 3 doses+TCS cream. Three active doses were included to characterize both exposure-response relationships and dosing frequency requirements.
Patients randomized to these four study treatment groups received study drug (lebrikizumab or placebo SC) in combination with TCS. Throughout the 12-week treatment period these patients continued to apply emollient at least once daily and triamcinolone acetonide 0.1% cream as described in the run-in period (two times per day to all active skin lesions on the body). […] Patients recorded their use of topical creams and responded to PRO-related questions using a hand held eDiary throughout the treatment period. At each study visit the patient was required to bring their TCS containers to the study site to be weighed.
Efficacy Outcome Measures. The primary efficacy outcome measure was the percentage of patients achieving EASI-50 (a 50% reduction in EASI score from baseline) at Week 12. […]

[1] = 125 mg single dose + TCS BID (n = 52), Week 12
[2] = 250 mg single dose + TCS BID (n = 53), Week 12

For “lebrikizumab: monoclonal humanized anti-IL-13 IgG4 antibody; heavy chain SEQ ID NO: 11, light chain SEQ ID NO: 12; formulated at 125 mg/mL in prefilled syringe”, the “% change from baseline in ADIQ, placebo-corrected change” value [1] was −4.9%, the “% change from baseline in Pruritus VAS (from SCORAD), mean” value [1] was −34.92% and the “% change from baseline in Pruritus VAS (from SCORAD), placebo-corrected change” value [1] was −7.38%. For the same substance, the “% change from baseline in Sleep Loss VAS (from SCORAD), mean” value [1] was −53.1%, the “% change from baseline in Sleep Loss VAS (from SCORAD), placebo-corrected change” value [1] was −30.6% and the “DLQI, % change from baseline, adjusted mean” value [1] was −34.33%. For the same substance, the “DLQI, % change from baseline, Δ vs placebo” value [1] was −0.76%, the “SCORAD score % change from baseline, adjusted mean” value [1] was −38.7% and the “SCORAD score % change from baseline, Δ vs placebo” value [1] was −3.3%. For the same substance, the “Total % BSA affected, % change from baseline, adjusted mean” value [1] was −45.2%, the “Total % BSA affected, % change from baseline, Δ vs placebo” value [1] was 2.2% and the “Change from baseline Pruritus VAS, mean % change” value (250 mg SD + TCS, Week 20) was −30.25%. The “Change from baseline Pruritus VAS, placebo-corrected differences” value (250 mg SD + TCS, Week 20) was −8.79%, the “Change from baseline in EASI, mean % change” value (250 mg SD + TCS, Week 20) was −55.9% and the “Change from baseline in EASI, placebo-corrected differences” value (250 mg SD + TCS, Week 20) was −1.88%. The “Change from baseline in the % BSA affected, mean % change” value (250 mg SD + TCS, Week 20) was −46.4%, the “Change from baseline in the % BSA affected, placebo-corrected differences” value (250 mg SD + TCS, Week 20) was 5.56% and the “Patients maintaining EASI-50 response at Weeks 12 and 20, %” value (250 mg SD + TCS, Week 20) was “(78.4) %”. The “Patients maintaining EASI-50 response at Weeks 12 and 20, placebo-corrected differences” value (250 mg SD + TCS, Week 20) was 5.65%, the “Patients maintaining EASI-75 response at Weeks 12 and 20, %” value (250 mg SD + TCS, Week 20) was “(61.5) %” and the “Patients maintaining EASI-75 response at Weeks 12 and 20, placebo-corrected differences” value (250 mg SD + TCS, Week 20) was −5.13%. For the same substance, the “Patients maintaining IGA 0/1 response at Weeks 12 and 20, %” value (250 mg SD + TCS, Week 20) was “(60.0) %”, the “Patients maintaining IGA 0/1 response at Weeks 12 and 20, placebo-corrected differences” value (250 mg SD + TCS, Week 20) was 0% and the “Patients maintaining SCORAD-50 response at Weeks 12 and 20, %” value (250 mg SD + TCS, Week 20) was “(64.0) %”. For the same substance, the “Patients maintaining SCORAD-50 response at Weeks 12 and 20, placebo-corrected differences” value (250 mg SD + TCS, Week 20) was −14.60%, the “% Patients achieving EASI-50” value [2] was “(69.8) %” and the “% Patients achieving EASI-50, placebo-corrected changes” value [2] was 7.6%. For the same substance, the “% Patients achieving EASI-75” value [2] was “(49.1) %”, the “% Patients achieving EASI-75, placebo-corrected changes” value [2] was 15.1% and the “% Patients achieving IGA 0/1” value [2] was “(28.3) %”. The “% Patients achieving IGA 0/1, placebo-corrected change” value [2] was 9.4%, the “% Patients achieving SCORAD-50” value [2] was 47.2% and the “% Patients achieving SCORAD-50, placebo-corrected change” value [2] was 20.8%. The “% Patients achieving SCORAD-75” value [2] was “(11.3) %”, the “% change from baseline in AD Specific health-related QoL - ADIQ, mean” value [2] was −30.8% and the “% change from baseline in ADIQ, placebo-corrected change” value [2] was −1.8%. The “% change from baseline in Pruritus VAS (from SCORAD), mean” value [2] was −32.82%, the “% change from baseline in Pruritus VAS (from SCORAD), placebo-corrected change” value [2] was −5.28% and the “% change from baseline in Sleep Loss VAS (from SCORAD), mean” value [2] was −47.2%. For the same substance, the “% change from baseline in Sleep Loss VAS (from SCORAD), placebo-corrected change” value [2] was −24.6%, the “DLQI, % change from baseline, adjusted mean” value [2] was −40.67% and the “DLQI, % change from baseline, Δ vs placebo” value [2] was −7.09%. The “SCORAD score % change from baseline, adjusted mean” value [2] was −42.6%, the “SCORAD score % change from baseline, Δ vs placebo” value [2] was −7.2% and the “Total % BSA affected, % change from baseline, adjusted mean” value [2] was −38.6%. For the same substance, the “Total % BSA affected, % change from baseline, Δ vs placebo” value [2] was 8.8%, the “% Patients achieving SCORAD-50” value (250 mg single dose + TCS BID (n = 53), Week 12, listed as Lebri) was “(47.2) %” and the “Mean % Change in % BSA Affected” value (125 mg Q4W group (n = 51)) was −9.3%. For the same substance, the “Mean % Change in EASI” value (125 mg Q4W group (n = 51)) was −9.1%, the “Mean % Change in Pruritus VAS” value (125 mg Q4W group (n = 51)) was −15.2% and the “Mean % Change in SCORAD” value (125 mg Q4W group (n = 51)) was −7.7%. For the same substance, the “Mean % Change in Sleep VAS” value (125 mg Q4W group (n = 51)) was −12.9%, the “Mean Absolute Change in IGA” value (125 mg Q4W group (n = 51)) was −0.14 and the “Mean % Change in % BSA Affected” value (125 mg SD group (n = 52)) was −17.1%. For the same substance, the “Mean % Change in EASI” value (125 mg SD group (n = 52)) was −14.3%, the “Mean % Change in Pruritus VAS” value (125 mg SD group (n = 52)) was −23.8% and the “Mean % Change in SCORAD” value (125 mg SD group (n = 52)) was −12.2%. The “Mean % Change in Sleep VAS” value (125 mg SD group (n = 52)) was −29.0%, the “Mean Absolute Change in IGA” value (125 mg SD group (n = 52)) was −0.21 and the “Mean % Change in % BSA Affected” value (250 mg SD group (n = 53)) was −4.3%. The “Mean % Change in EASI” value (250 mg SD group (n = 53)) was −10.2%, the “Mean % Change in Pruritus VAS” value (250 mg SD group (n = 53)) was −15.5% and the “Mean % Change in SCORAD” value (250 mg SD group (n = 53)) was −9.9%. For the same substance, the “Mean % Change in Sleep VAS” value (250 mg SD group (n = 53)) was −8.1% and the “Mean Absolute Change in IGA” value (250 mg SD group (n = 53)) was −0.17.
